Assay type in all cases: functional
Experiment [1] deals with J774. The experiment in a line: Inhibition of LPS induced nitrite production in mouse J774 cells at 10 uM after 24 hrs relative to control. To be noted: J774, 24 h.
The subject of experiment [2] is J774. The experiment in a line: Inhibition of LPS induced iNOS mRNA level in mouse J774 cells at 10 uM by RT-PCR.
Experiment [3] has as its system J774. The experiment in a line: Inhibition of iNOS protein expression in mouse J774 cells by Bio-Rad protein assay.
In experiment [4] the test system is J774. The experiment in a line: Inhibition of LPS induced ROS production in mouse J774 cells at 10 uM after 24 hrs relative to control. To be noted: J774, 24 h.

As a reminder, the inhibition is the drop in the measured response relative to a control, in per cent. A lower inhibition goes with a weak effect. In general, Inhibition refers to the relative decrease from the control value, in per cent. The low end stands for a weak effect, the high end for a strong effect.

As for `S=C(S)N1CCCC1` [PYRROLIDINE DITHIOCARBAMATE], the inhibition at 10 µM in the experiment on J774 [1] came out at 69.3%; with J774 [2], 63.9%; in the experiment on J774 [4], 42.2%. Further, the Inhibition in the experiment on J774 [3] was determined as 60%.
